The target in the first experiment is human recombinant GPR65 (Homo sapiens, UniProt Q8IYL9). Put plainly: Human GPR65 cAMP HTRF antagonist assay.
Chain of human recombinant GPR65 (Q8IYL9 whole entry): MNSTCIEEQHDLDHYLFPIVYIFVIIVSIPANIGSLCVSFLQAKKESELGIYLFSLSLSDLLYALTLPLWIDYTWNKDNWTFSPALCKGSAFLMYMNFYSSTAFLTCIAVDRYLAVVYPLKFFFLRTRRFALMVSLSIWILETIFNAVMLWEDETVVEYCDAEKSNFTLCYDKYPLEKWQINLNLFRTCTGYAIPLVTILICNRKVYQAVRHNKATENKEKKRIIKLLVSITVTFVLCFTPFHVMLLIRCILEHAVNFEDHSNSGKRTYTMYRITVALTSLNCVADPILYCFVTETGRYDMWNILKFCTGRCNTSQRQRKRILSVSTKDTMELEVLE
Details: not given
It is filed as cell-based. The method, boiled down: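 1321N1 astrocytoma cells stably expressing hrGPR65, with IBMX and EDTA, were preincubated with compound 30 min at room temperature, then acid-activated at assay pH 7.2 (control pH 7.9) for 30 min. cAMP read by HTRF (665/620 nm ratio); IC50 from 4-parameter fit normalised to high/low controls.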
On the technique in general: Time-resolved FRET reads energy transfer from a long-lived donor to a nearby acceptor.
As usually defined, the IC50 is the point on the concentration scale where inhibition reaches its midpoint. In the case of `O=C(Nc1cc(Cl)c(-c2cnc(F)c(F)c2)cc1F)N1[C@H]2CC[C@@H]1c1n[nH]c(=O)cc1C2` [Compound 279, (6S,9R)-N-(5-Chloro-4-(5,6-difluoropyridin-3-yl)-2-fluorophenyl)-3-oxo-3,5,6,7,8,9-hexahydro-2H-6,9-epiminocyclohepta[c]pyridazine-10-carboxamide], the half-inhibitory concentration (IC50) was less than 0.5 µM.

As to `O=C(Nc1cc(Cl)c(F)cc1Oc1ccc2nonc2c1)N1[C@H]2CC[C@@H]1c1n[nH]c(=O)cc1C2` [Compound 224, (6S,9R)-N-(2-(Benzo[c][1,2,5]oxadiazol-5-yloxy)-5-chloro-4-fluorophenyl)-3-oxo-3,5,6,7,8,9-hexahydro-2H-6,9-epiminocyclohepta[c]pyridazine-10-carboxamide], the 50% inhibitory concentration (IC50) lay within 0.5 to 5 µM.

`O=C(Nc1cc(Cl)c(Br)cc1F)N1C2CCC1c1c[nH]c(=O)nc1C2` (racemic) [Compound 16, (±)-N-(4-bromo-5-chloro-2-fluorophenyl)-2-oxo-3,5,6,7,8,9-hexahydro-2H-5,8-epiminocyclohepta[d]pyrimidine-10-carboxamide]: the IC50 was less than 0.5 µM.

On to `Cn1ncc2ccc(-c3cc(F)c(NC(=O)N4[C@H]5CC[C@@H]4c4n[nH]c(=O)cc4C5)cc3Cl)cc21` [Compound 152, (6S,9R)-N-(5-Chloro-2-fluoro-4-(1-methyl-1H-indazol-6-yl)phenyl)-3-oxo-3,5,6,7,8,9-hexahydro-2H-6,9-epiminocyclohepta[c]pyridazine-10-carboxamide], for which the IC50 is less than 0.5 µM.

For the compound `COc1cnc(F)c2c1[C@H]1CC[C@@H](C2)N1C(=O)Nc1cc(Cl)c(Cl)cc1F` [Compound 96, (5R,8S)-N-(4,5-Dichloro-2-fluorophenyl)-1-fluoro-4-methoxy-6,7,8,9-tetrahydro-5H-5,8-epiminocyclohepta[c]pyridine-10-carboxamide], the IC50 is less than 0.5 µM.

Consider `O=C(Nc1cc(Cl)c(-c2cccnc2F)cc1F)N1[C@H]2CC[C@@H]1c1n[nH]c(=O)cc1C2` [Compound 115, (6S,9R)—N-(5-Chloro-2-fluoro-4-(2-fluoropyridin-3-yl)phenyl)-3-oxo-3,5,6,7,8,9-hexahydro-2H-6,9-epiminocyclohepta[c]pyridazine-10-carboxamide], for which the IC50 is less than 0.5 µM.

Turning to `COc1cncc(-c2cc(F)c(NC(=O)N3[C@H]4CC[C@@H]3c3n[nH]c(=O)cc3C4)cc2Cl)c1` [Compound 114, (6S,9R)—N-(5-Chloro-2-fluoro-4-(5-methoxypyridin-3-yl)phenyl)-3-oxo-3,5,6,7,8,9-hexahydro-2H-6,9-epiminocyclohepta[c]pyridazine-10-carboxamide], the 50% inhibitory concentration (IC50) is less than 0.5 µM.

As for `O=C(Nc1cc(-c2ccccc2)c(C(F)(F)F)cc1F)N1[C@H]2CC[C@@H]1c1n[nH]c(=O)cc1C2` [Compound 258, (6S,9R)-N-(4-Fluoro-6-(trifluoromethyl)-[1,1′-biphenyl]-3-yl)-3-oxo-3,5,6,7,8,9-hexahydro-2H-6,9-epiminocyclohepta[c]pyridazine-10-carboxamide], the half-maximal inhibitory concentration (IC50) is less than 0.5 µM.

Take `O=C(Nc1ccc(OC2CCC2)c(Cl)c1)N1[C@H]2CC[C@@H]1c1ccnc(F)c1C2` [Compound 69, (5R,8S)-N-(3-Chloro-4-cyclobutoxyphenyl)-1-fluoro-6,7,8,9-tetrahydro-5H-5,8-epiminocyclohepta[c]pyridine-10-carboxamide]: the IC50 was less than 0.5 µM.

On to `O=C(Nc1cc(Cl)c(-c2ccc(OCC(F)F)nc2)cc1F)N1[C@H]2CC[C@@H]1c1n[nH]c(=O)cc1C2` [Compound 305, (6S,9R)-N-(5-Chloro-4-(6-(2,2-difluoroethoxy)pyridin-3-yl)-2-fluorophenyl)-3-oxo-3,5,6,7,8,9-hexahydro-2H-6,9-epiminocyclohepta[c]pyridazine-10-carboxamide], for which the IC50 was less than 0.5 µM.

For `COc1cncc(-c2cc(F)c(NC(=O)N3[C@H]4CC[C@@H]3c3c[nH]c(=O)cc3C4)cc2Cl)c1` [Compound 249, (6S,9R)-N-(5-Chloro-2-fluoro-4-(5-methoxypyridin-3-yl)phenyl)-3-oxo-3,5,6,7,8,9-hexahydro-2H-6,9-epiminocyclohepta[c]pyridine-10-carboxamide], the half-inhibitory concentration (IC50) is less than 0.5 µM.

Regarding `CN1C(=O)COc2ccc(-c3cc(F)c(NC(=O)N4[C@H]5CC[C@@H]4c4n[nH]c(=O)cc4C5)cc3Cl)cc21` [Compound 147, (6S,9R)-N-(5-Chloro-2-fluoro-4-(4-methyl-3-oxo-3,4-dihydro-2H-benzo[b][1,4]oxazin-6-yl)phenyl)-3-oxo-3,5,6,7,8,9-hexahydro-2H-6,9-epiminocyclohepta[c]pyridazine-10-carboxamide], the IC50 is less than 0.5 µM.

With `Cc1nc2cc(-c3cc(F)c(NC(=O)N4[C@H]5CC[C@@H]4c4ccnc(F)c4C5)cc3Cl)ccc2o1` [Compound 233, (5R,8S)-N-(5-Chloro-2-fluoro-4-(2-methylbenzo[d]oxazol-5-yl)phenyl)-1-fluoro-6,7,8,9-tetrahydro-5H-5,8-epiminocyclohepta[c]pyridine-10-carboxamide], the IC50 is less than 0.5 µM.

For `CS(=O)(=O)c1ccc(-c2cc(F)c(NC(=O)N3[C@H]4CC[C@@H]3c3n[nH]c(=O)cc3C4)cc2Cl)cc1F` [Compound 132, (6S,9R)-N-(2-Chloro-3′,5-difluoro-4′-(methylsulfonyl)-[1,1′-biphenyl]-4-yl)-3-oxo-3,5,6,7,8,9-hexahydro-2H-6,9-epiminocyclohepta[c]pyridazine-10-carboxamide], the IC50 was less than 0.5 µM.

For the compound `O=C(Nc1cc(Cl)c(-c2ccc(OC3CC(F)(F)C3)nc2)cc1F)N1[C@H]2CC[C@@H]1c1n[nH]c(=O)cc1C2` [Compound 292, (6S,9R)-N-(5-Chloro-4-(6-(3,3-difluorocyclobutoxy)pyridin-3-yl)-2-fluorophenyl)-3-oxo-3,5,6,7,8,9-hexahydro-2H-6,9-epiminocyclohepta[c]pyridazine-10-carboxamide], the half-maximal inhibitory concentration (IC50) is less than 0.5 µM.

Turning to `O=C(Nc1cc(Cl)c(I)cc1F)N1[C@H]2CC[C@@H]1c1c[nH]c(=O)cc1C2` [Compound 79, (6S,9R)-N-(5-Chloro-2-fluoro-4-iodophenyl)-3-oxo-3,5,6,7,8,9-hexahydro-2H-6,9-epiminocyclohepta[c]pyridine-10-carboxamide], the 50% inhibitory concentration (IC50) is less than 0.5 µM.

Regarding `O=C(Nc1ccc(OC(F)(F)F)c(Cl)c1)N1C2CCC1c1n[nH]c(=O)cc1C2` (racemic) [Compound 9, (±)-N-(3-Chloro-4-(trifluoromethoxy)phenyl)-3-oxo-3,5,6,7,8,9-hexahydro-2H-6,9-epiminocyclohepta[c]pyridazine-10-carboxamide], the IC50 is less than 0.5 µM.

`O=C(Nc1cc(Cl)c(-c2ccc(F)nc2)cc1F)N1[C@H]2CC[C@@H]1c1n[nH]c(=O)cc1C2` [Compound 109, (6S,9R)-N-(5-Chloro-2-fluoro-4-(6-fluoropyridin-3-yl)phenyl)-3-oxo-3,5,6,7,8,9-hexahydro-2H-6,9-epiminocyclohepta[c]pyridazine-10-carboxamide]: the 50% inhibitory concentration (IC50) is less than 0.5 µM.

In the case of `O=C(Nc1cc(Cl)c(-c2cnc(F)nc2)cc1F)N1[C@H]2CC[C@@H]1c1n[nH]c(=O)cc1C2` [Compound 178, (6S,9R)-N-(5-Chloro-2-fluoro-4-(2-fluoropyrimidin-5-yl)phenyl)-3-oxo-3,5,6,7,8,9-hexahydro-2H-6,9-epiminocyclohepta[c]pyridazine-10-carboxamide], the concentration for half-maximal inhibition (IC50) is less than 0.5 µM.

`O=C(Nc1cc(Cl)c(COc2cncc(F)c2)cc1F)N1[C@H]2CC[C@@H]1c1n[nH]c(=O)cc1C2` [Compound 316, (6S,9R)-N-(5-Chloro-2-fluoro-4-(((5-fluoropyridin-3-yl)oxy)methyl)phenyl)-3-oxo-3,5,6,7,8,9-hexahydro-2H-6,9-epiminocyclohepta[c]pyridazine-10-carboxamide]: the IC50 was less than 0.5 µM.

For `C=C1c2ccnc(F)c2[C@H]2CC[C@@H]1N2C(=O)Nc1cc(Cl)c(Cl)cc1F` [Compound 106, (6S,9R)-N-(4,5-Dichloro-2-fluorophenyl)-1-fluoro-5-methylene-6,7,8,9-tetrahydro-5H-6,9-epiminocyclohepta[c]pyridine-10-carboxamide], the IC50 lay in the range of 0.5 to 5 µM.

In the case of `COc1cc(-c2cc(F)c(NC(=O)N3[C@H]4CC[C@@H]3c3c[nH]c(=O)cc3C4)cc2Cl)ccn1` [Compound 265, (6S,9R)-N-(5-Chloro-2-fluoro-4-(2-methoxypyridin-4-yl)phenyl)-3-oxo-3,5,6,7,8,9-hexahydro-2H-6,9-epiminocyclohepta[c]pyridine-10-carboxamide], the IC50 is less than 0.5 µM.

Take `O=C(Nc1cc(Cl)c(-c2nnc(C(F)(F)F)s2)cc1F)N1[C@H]2CC[C@@H]1c1ccnc(F)c1C2` [Compound 65, (5R,8S)-N-(5-Chloro-2-fluoro-4-(5-(trifluoromethyl)-1,3,4-thiadiazol-2-yl)phenyl)-1-fluoro-6,7,8,9-tetrahydro-5H-5,8-epiminocyclohepta[c]pyridine-10-carboxamide]: the IC50 was less than 0.5 µM.

For `O=C(Nc1ccc(Cl)c(Cl)c1)N1C2CCC1c1n[nH]c(=O)cc1C2` (racemic) [Compound 75, (±)-N-(3,4-Dichlorophenyl)-3-oxo-3,5,6,7,8,9-hexahydro-2H-6,9-epiminocyclohepta[c]pyridazine-10-carboxamide], the 50% inhibitory concentration (IC50) is less than 0.5 µM.

The experiment is the same for the next values; noted with them: 1321N1-hrGPR65 cells, cAMP HTRF, assay pH 7.2; read-out: hGPR65 IC50 (Activity of selected compounds according to the invention).
Regarding `O=C(Nc1cc(Cl)c(Cl)cc1F)N1[C@H]2CC[C@@H]1c1ncccc1C2` [Compound 90, (6S,9R)-N-(4,5-Dichloro-2-fluorophenyl)-6,7,8,9-tetrahydro-5H-6,9-epiminocyclohepta[b]pyridine-10-carboxamide], the IC50 was greater than 5 µM.

Regarding `O=C(Nc1cc(Cl)c(-c2cccc(CN3CCCC3)c2)cc1F)N1[C@H]2CC[C@@H]1c1n[nH]c(=O)cc1C2` [Compound 135, (6S,9R)-N-(2-Chloro-5-fluoro-3′-(pyrrolidin-1-ylmethyl)-[1,1′-biphenyl]-4-yl)-3-oxo-3,5,6,7,8,9-hexahydro-2H-6,9-epiminocyclohepta[c]pyridazine-10-carboxamide], the IC50 is 0.5 to 5 µM.

Source of the values: patent US20240368173A1, “TRICYCLIC GPR65 MODULATORS” (PATHIOS THERAPEUTICS LIMITED, priority 2021, published 2024).
